Assay results published in PMC8171317, “Total synthesis, isolation, surfactant properties, and biological evaluation of ananatosides and related macrodilactone-containing rhamnolipids” (Chemical Science, 2021).
Marks after values point to notes of the source that are not given here.

Key:
[1] = Cytotoxicity, resazurin assay; format: cell-based, human; details: human, max tested 200 μM
Procedure: (§1) As the anticancer potential of microbial rhamnolipids has previously been reported,[16] we next sought to evaluate the in vitro cytotoxicity of our synthetic and natural glycolipids 1–6 against cancerous cell lines, i.e., human lung carcinoma (A549) and colorectal adenocarcinoma (DLD-1). The compounds were also tested against human normal skin fibroblasts (WS1) to estimate their selectivity towards cancer cells.
(§2) 4. Experimental Procedures for Biological Evaluation and Surfactant Properties. […]
(§3) Cell Culture. Human lung carcinoma (A549), human colorectal adenocarcinoma (DLD-1), and human normal skin fibroblasts (WS1) cell lines were obtained from the American Type Culture Collection (ATCC). All cell lines were cultured in minimum essential medium containing Earle’s […]
(§4) salts and L-glutamine (Mediatech Cellgro, VA), to which were added 10% foetal bovine serum (Hyclone), vitamins (1×), penicillin (100 IU•mL-1), streptomycin (100 µg•mL−1), essential amino acids (1×), and sodium pyruvate (1×) (Mediatech Cellgro, VA). Cells were kept at 37 °C in a humidified environment containing 5% CO2.
(§5) Cytotoxicity Assay. Exponentially growing A549, DLD-1 or WS1 cells were plated in 96-well microplates (Costar, Corning Inc.) at a density of 5 × 10^3 cells per well in 100 µL of culture medium and were allowed to adhere for 16 h prior treatment. Increasing concentrations of each compound in biotech DMSO (Sigma-Aldrich) were then added (100 µL per well) and the cells were incubated for 48 h. The final concentration of DMSO in the culture medium was maintained at 0.5% (v/v) to avoid solvent toxicity. Cytotoxicity was assessed using resazurin9 on an automated 96-well Fluoroskan Ascent F1TM plate reader (Labsystems) using excitation and emission wavelengths of 530 and 590 nm, respectively. Fluorescence was proportional to the cellular metabolic activity in each well. Survival percentage was defined as the fluorescence in experimental wells as compared to that in control wells after subtraction of blank values. Each experiment was carried out three times in triplicate. IC50 results were expressed as means ± standard deviation. […]

[2] = Cytotoxicity, resazurin assay, summary over cell lines; format: cell-based; details: human, DLD-1 and WS1 cells (summary over the three lines); A549, DLD-1 and WS1; read-out: Cytotoxicity IC50 against human cell lines
Procedure: as §1, §2, §3, §4, §5

[3] = system: sheep blood erythrocytes; test: Hemolytic activity; format: cell-based; details: sheep blood erythrocytes; 1 h, 37 °C; max tested 200 μM
Procedure: Owing to their surfactant properties, glycolipids can break the membrane of red blood cells causing hemolytic activity.[18] To understand if the cytotoxicity of macrolactones 1, 4, 5β, and 6β was due to their surface tension activity, we evaluated the hemolytic potential of synthetic glycolipids 1–6 against sheep erythrocytes (Table 5). […] The non-cytotoxic rhamnolipid 3 was also found to exert a weak hemolytic activity (HC50 = 65 ± 6 μM). […]
Hemolytic Activity. The hemolytic activity of the synthetic surfactants was evaluated as previously described with small modifications.10 Defibrinated sheep blood (Oxoid) was centri fuged at 1000 × g for 5 min. The pellet containing erythrocytes was washed once and suspended in 1X PBS to obtain a 1% erythrocytes suspension. All samples were suspended in DMSO/PBS (5:1 v/v) and serially diluted in a 96 -well plate to obtain a range of co ncentrations from 1 mM to 7.8 µM.
The erythrocytes suspension (160 µL) was added to 40 µL of samples to obtain final concentrations […]
ranging between 200 µM and 1.56 µM. Triton X-100 was used as a positive hemolysis control.
The plate was then incubated at 37 °C with agitation at 150 rpm for 1 h and centrifuged at 1500 × g for 5 min. The supernatant was transferred in an empty plate and absorbance was measured at 540 nm using a Cytation3 microplate reader (Biotek). HC50 was calculated in comparison with the positive control. The experiment was performed in triplicate and repeated three times. […]

[4] = system: tomato leaf disks; test: Extracellular ROS production, luminol chemiluminescence; format: cell-based, Solanum lycopersicum; details: 100 μM, monitored over 720 min
Excerpt: Bacterial rhamnolipids, such as compound 3, trigger the plant immune system, which can ultimately lead to plant protection against diseases caused by fungal and bacterial pathogens.[23] As ananatoside A (1) and ananatoside B (2) share structural similarities with rhamnolipid 3 and because they have been isolated from P. ananatis cultures, an emerging plant pathogen causing important agricultural damage worldwide,[81] we wanted to investigate whether these bacterial glycolipids, along with our unprecedented series of synthetic rhamnolactones, could be perceived by the plant immune system. We relied on measuring the extracellular content of reactive oxygen species (ROS) produced by tomato plants (Solanum lycopersicum) following treatment with the synthetic compounds, as an early and important marker of plant immunity.[20,22,82] Tomato leaves were challenged with synthetic glycolipids 1–6 at concentrations of 100 μM and the production of ROS was monitored over a 720 min time frame (Fig. 5).
Fig. 5 Extracellular reactive oxygen species (ROS) production following treatment of tomato leaf disks with ananatoside A (1), ananatoside B (2), RhaC10C10 (3), and related macrodilactone-containing rhamnolipids (4–6). Production of ROS was measured in tomato leaf disks following treatment at 100 μM with synthetic glycolipids (1–6). MeOH (0.5%) was used as a control. ROS production was measured using the chemiluminescence of luminol and photon counts were expressed as relative luminescence units (RLUs). Data are mean ± SEM (n = 6). Experiments were independently realized three times with similar results. […]
Plant Material and Growth Conditions. Tomato plants (Solanum lycopersicum L var. Ailsa craig, Scotland) were grown on soil in growth chamber with white fluorescent light [200 μmol•(m−2 s−1)], under 16 h/8 h light/dark regime, 60% relative humidity , and a temperature of 24 /20 °C during four weeks prior treatment. Arabidopsis thaliana plants (ecotype Col -0) were grown on soil in growth chambers with white fluorescent light (150 μmol m−2 s−1), under 12 h/12 h light/dark regime, 60% relative humidity, and a temperature of 20/20 °C during six weeks prior treatment.
Reactive Oxygen Species (ROS) Production. ROS assays were performed on four-week old tomato plants or six-week old Arabidopsis plants. Briefly, tomato leaf disks of 6 mm diameter or Arabidopsis petiole sections of 5 mm long were cut and placed in a 96-well plate (Optiplate TM-96 white, PerkinElmer) containing 150 µL of distilled H2O and then incubated at rt for 24 h to reduce the wounding response.11 The elicitation solution containing 0.2 µg•mL−1 luminol (A4685-5 g, Sigma), […] (P6782, Sigma) and the tested glycolipids (1, 2, 3, 4, 5α, 5β, 6α or 6β) at 100 μM was prepared. Methanol (0.5%) was used as negative control. Prior elicitation, the incubating distilled H2O was carefully removed from each well, avoiding any tissue damage or desiccation. Then, the elicitation solution (150 µL) was quickly added to each well containing a leaf disk or a petiole. Luminescence (relative light units, RLU) was measured every 4

[5] = DLD-1 colorectal adenocarcinoma cells

SMILES | IC50 at 48 h ([1]; A549 lung carcinoma cells) [µM] | IC50 at 48 h [1, 5] [µM] | IC50 at 48 h ([1]; WS1 normal skin fibroblasts) [µM] | IC50 at 48 h [2] [µM] | Hemolysis (HC50 in μM) Erythrocytes [3] | Extracellular ROS production [4]
CCCCCCC[C@H](CC(=O)O)OC(=O)C[C@@H](CCCCCCC)O[C@@H]1O[C@H](CO)[C@@H](O)[C@H](O)[C@H]1O [Compound 2, ananatoside B] | > 200 | > 200 | > 200 | > 200 | >200 ^d μM | less strong in amplitude, a similar pattern of ROS production
CCCCCCC[C@@H]1CC(=O)OC[C@H]2O[C@@H](O[C@H](CCCCCCC)CC(=O)O1)[C@H](O)[C@@H](O)[C@@H]2O [Compound 1, ananatoside A] | 50 ± 7 | 58 ± 2 | 52 ± 4 | 50 to 58 | 12.3 ± 0.3 µM | not
